Results from patent publication US10526662B2, “FALZ for use as a target for therapies to treat cancer” (Sutter Bay Hospitals, priority 2013, dated 2020).

What was measured:
1205-Lu melanoma cells = experiment: BRAF inhibitor sensitivity of 1205-Lu cells with modulated BPTF expression; format: cell-based, human; details: for reduction in sensitivity to drug on overexpression of BPTF: 1205-Lu overexpressing BPTF; for increase in sensitivity of BPTF shRNA-expressing cells to drug: 1205-Lu, vs control shRNA-expressing cells
Description: (§1) Cell viability and colony formation were performed and cell cycle analysis was performed as described using common techniques in the art. Cells were treated with varying concentrations of vemurafenib for 72 hrs or dabrafenib (Chemitek, Indianapolis, Ind.) for 48 hrs or as indicated. DMSO was used as a vehicle.

BPTF [1] = experiment: qRT-PCR of BPTF expression in B16-F10 cells; format: cell-based; details: B16-F10 murine melanoma cells, mRNA level
Description: (§2) mRNAs were assayed using the TaqMan Gene Expression Assays in accordance with the manufacturer's instructions (Applied Biosystems). TaqMan probes for BPTF, HPRT1, CCND2, BCL-XL, TWIST1, RAB14, CEBPB, CHI3L1, DLL3, OLIG2, PDGFRA and BCL2 were purchased from Applied Biosystems (Foster City, Calif.).
(§3) Selected shRNAs cloned into the pLKO1-vector were co-transfected into 293T cells along with expression vectors containing the GAG/POL, REV and VSVG genes. Lentiviruses were harvested 48 hrs after transfection. Sub-confluent human melanoma or glioblastoma cells were infected with each harvested lentiviruses in the presence of 8 μg/ml of polybrene, and were selected in 1 μg/ml of puromycin at 48 hrs post-infection in their respective culture medium. B16-F10 cells were transfected with BPTF shRNA1, BPTF shRNA 2 or Neg shRNA vectors and stable transformants were selected with 2 ug/ml of puromycin.

[2] = system: B16-F10 murine melanoma cells; experiment: cDNA microarray gene expression profiling of B16-F10 clones; format: cell-based
Text: Total RNA was extracted from cells using the RNeasy kit (Qiagen, Valencia, Calif.). Ten micrograms of total RNA, along with universal mouse reference RNA (Stratagene, Santa Clara, Calif.), was converted to aminoallyl-modified cDNA by oligo(dT)-primed polymerization using SuperScript II reverse transcriptase (Invitrogen), coupled to N-hydroxysuccinimidyl esters of Cy3 or Cy5 (Amersham Pharmacia, Pittsburgh, Pa.), and then hybridized to a microarray slide as described (Haqq et al., 2005). After linear normalization, log (base 2) transformation, and supervised hierarchical clustering, the resulting cluster data table was imported into the significance analysis of microarrays software package. Delta was chosen to limit the output gene list so that 5% predicted false positives would be included.

U251 human GBM cells [3] = experiment: Subcutaneous U251 tumor growth in nude mice; format: in vivo; details: subcutaneous inoculation
Description: (§4) All animal care was in accordance with institutional guidelines and a protocol that was approved by the University of California San Francisco Committee on Animal Research and California Pacific Medical Center Research Institute. Groups of 45-day-old female C57B1/6 (Charles River) were inoculated by tail vein injection with 30,000 B16-F10 BPTF stables cells. 1×10^6 1205-Lu cells were injected by tail vain in nude mice. For subcutaneous injection 1×10^6 1205-Lu, B16-F10, or C8161.9 cells and 2×10^6 U251 cells were injected, respectively.

[4] = system: phosphorylated ERK1/2 and p90RSK; experiment: Western blot of phosphorylated ERK1/2 and p90RSK in GBM cells; format: cell-based, human; details: GBM cells (U251)
Description: (§5) Western blot analysis was performed. Target proteins were detected by using specific antibodies against BPTF (Bethyl Laboratories Montgomery, TX), BCL2, and GAPDH (Santa Cruz Biotechnology, Santa Cruz, Calif.), and ERK1/2, pERK1/2, CCND2, BCL-XL, p90RSK (Cell Signaling Technology, Danvers, Mass.).

[5] = system: 1205-Lu human melanoma cells; experiment: Subcutaneous tumor growth of 1205-Lu cells in nude mice; format: in vivo; details: 1205-Lu in nude mice, vs control shRNA-expressing cells
Description: as §4

U251 human GBM cells [6] = experiment: Cell cycle analysis, U251; format: cell-based; details: U251, p<0.01
Description: as §1

[7] = system: 1205-Lu human melanoma cells; experiment: Colony formation assay, 1205-Lu; format: cell-based; details: p<0.02
Description: as §1

BPTF [8] = experiment: qRT-PCR of BPTF expression in U251 cells; format: cell-based; details: U251 human GBM cells
Description: as §2, §3

U251 human GBM cells [9] = experiment: Cell survival and colony formation, U251; format: cell-based
Description: as §1

[10] = system: 1205-Lu human melanoma cells; experiment: Cell cycle analysis, 1205-Lu; format: cell-based; details: vs control shRNA vector
Description: as §1

BCL2, BCL-XL and CCND2 = experiment: Expression of BCL2, BCL-XL and CCND2 in GBM cells; format: cell-based, human; details: GBM cells (U251)
Description: as §2, §5

[11] = system: 1205-Lu human melanoma cells; experiment: Lung metastatic tumor burden after intravenous inoculation of 1205-Lu cells; format: in vivo; details: nude mice
Description: as §4

BPTF [12] = experiment: qRT-PCR of BPTF expression in 1205-Lu cells; format: cell-based; details: 1205-Lu human melanoma cells (mutant BRAF)
Description: as §2, §3

U251 human GBM cells [13] = experiment: Matrigel invasion assay, U251; format: cell-based
Description: (§6) A Matrigel assay for tumor invasion was performed using routine techniques. For B16-F10, 1205-Lu and C8161.9 cells, insert chambers were coated with 15 μl matrigel at 6 mg/ml protein, 17 μl and 7 mg/ml for C8161.9 cells and 15 μl and 5 mg/ml for 1205-Lu and U251 cell lines.

U251 human GBM cells [14] = experiment: Apoptosis, U251; format: cell-based; details: U251, p<0.02
[15] = system: 1205-Lu human melanoma cells; experiment: Apoptosis, 1205-Lu; format: cell-based; details: p<0.02
[16] = system: 1205-Lu human melanoma cells; experiment: Cell survival assay, 1205-Lu; format: cell-based
Description: as §1

[17] = system: 1205-Lu human melanoma cells; experiment: Matrigel invasion assay, 1205-Lu; format: cell-based
Description: as §6

[18] = B16-F10 clones stably expressing shRNA vs control vector

In the case of `CC(C)(C)c1nc(-c2cccc(NS(=O)(=O)c3c(F)cccc3F)c2F)c(-c2ccnc(N)n2)s1` [dabrafenib], the “reduction in sensitivity to drug on overexpression of BPTF” value (1205-Lu melanoma cells) is reported as 3.4 fold and the “increase in sensitivity of BPTF shRNA-expressing cells to drug” value (1205-Lu melanoma cells) is reported as 2.8 fold.

In the case of `CCCS(=O)(=O)Nc1ccc(F)c(C(=O)c2c[nH]c3ncc(-c4ccc(Cl)cc4)cc23)c1F` [vemurafenib], the “reduction in sensitivity to drug on overexpression of BPTF” value (1205-Lu melanoma cells) is reported as 2.5 fold and the “increase in sensitivity of BPTF shRNA-expressing cells to drug” value (1205-Lu melanoma cells) is reported as 3.2 fold.

With “BPTF shRNA 1: shRNA targeting BPTF, TGGCTGTGATCGGTGTCAGAATTGGTACC (SEQ ID NO:3); used for the murine cell line (listed as DNA, chemistry not fully specified)” the “BPTF expression (qRT-PCR)” value (BPTF [1]) was “suppressed significantly”.

With “BPTF shRNA 2: shRNA targeting BPTF, GGTGATGAAGCATAATGCTGTA ATAGAAC (SEQ ID NO:4); used for the murine cell line (GGTGATGAAGCATAATGCTGTAATAGAAC; listed as DNA, chemistry not fully specified)” the “Bcl-xl and Ccnd2 expression” value ([2]; B16-F10, microarray, confirmed by qRT-PCR and western blot) was “downregulated”, the “number of genes overexpressed” value [2, 18] was 1008 genes and the “number of genes with downregulated expression” value [2, 18] was 27 genes. For the same molecule, the “BPTF expression (qRT-PCR)” value (BPTF [1]) was “suppressed significantly”.

In the case of “BPTF shRNA 3: shRNA targeting human BPTF, ATTTAGATTCATCATAAGGCG (SEQ ID NO:5) (listed as DNA, chemistry not fully specified)”, the “U251 tumor cell growth” value (U251 human GBM cells [3]) is reported as “highly significant reduction”, the “phosphorylated ERK1/2 and p90RSK” value [4] is reported as “significant suppression” and the “subcutaneous tumor cell growth” value [5] is reported as “considerably suppressed”. For the same molecule, the cell cycle distribution (U251 human GBM cells [6]) was “significant G1/G0 cell cycle arrest”, the colony formation ability [7] was “suppression” and the BPTF expression (BPTF [8]) was “Stable suppression”. The “proliferation (cell survival and colony formation)” value (U251 human GBM cells [9]) was “significantly reduced”, the cell cycle distribution [10] was “G1/G0 cell cycle arrest and a significant reduction in S-phase” and the “expression of BCL2, BCL-XL and CCND2” value (BCL2, BCL-XL and CCND2) was “suppression”. The “reduction in the metastatic tumor burden in the lungs” value [11] was 66%, the BPTF expression (BPTF [12]) was “significant suppression” and the invasiveness (U251 human GBM cells [13]) was “significantly reduced”. For the same molecule, the apoptosis (U251 human GBM cells [14]) was “induction”, the apoptotic index [15] was “significantly increased” and the cell survival [16] was “suppression”. The “invasiveness into Matrigel” value [17] was “significant decrease”.
